Measurements as given in the NIST ThermoML archive (doi:10.1016/j.jct.2013.01.017).
Numbers after ± are expanded uncertainties.

Details: Liquid, Closed cell (Static) method

FCF [difluoromethane]
Details | vapor or sublimation pressure [kPa]
280.59 K | 1022 ± 14
283.05 K | 1109 ± 14
285.52 K | 1195 ± 14
288.02 K | 1280 ± 14
290.46 K | 1364 ± 14
293.02 K | 1474 ± 14
295.49 K | 1578 ± 14
298.01 K | 1684 ± 14
300.48 K | 1793 ± 15
302.94 K | 1918 ± 15
305.46 K | 2051 ± 15
307.91 K | 2179 ± 15
310.48 K | 2318 ± 15
312.9 K | 2459 ± 15
315.43 K | 2614 ± 15
317.89 K | 2772 ± 15
320.41 K | 2948 ± 15
322.92 K | 3120 ± 15
325.42 K | 3303 ± 15
327.9 K | 3498 ± 16
330.35 K | 3694 ± 16
332.91 K | 3910 ± 16
335.4 K | 4138 ± 16
337.93 K | 4370 ± 16
340.43 K | 4602 ± 17
342.88 K | 4854 ± 17
345.4 K | 5117 ± 17
347.89 K | 5392 ± 17

C=CCC [1-butene]
Details | vapor or sublimation pressure [kPa]
302.9 K | 343 ± 14
307.83 K | 396 ± 14
312.96 K | 456 ± 14
318.05 K | 521 ± 14
322.94 K | 593 ± 14
328.06 K | 671 ± 14
332.97 K | 759 ± 14
337.99 K | 855 ± 14
342.98 K | 957 ± 14
347.93 K | 1069 ± 14
353.18 K | 1197 ± 14

FC(F)(F)C1(F)OC1(F)F (centres undefined) [2,2,3-trifluoro-3-(trifluoromethyl)oxirane]
Details | vapor or sublimation pressure [kPa]
302.95 K | 786 ± 14
307.93 K | 896 ± 14
312.93 K | 1015 ± 14
317.86 K | 1150 ± 14
322.92 K | 1298 ± 14
327.88 K | 1474 ± 14
332.87 K | 1658 ± 14
337.87 K | 1864 ± 15
342.88 K | 2075 ± 15
347.85 K | 2313 ± 15
